# Measured values as given in patent USRE48461E1, “Modulation of androgen receptor expression” (Ionis Pharmaceuticals, Inc., priority 2012, dated 2021).
# Tests used:
# Assay type in all cases: cell-based, human
# VCaP cells = experiment: VCaP cell proliferation; conditions: VCaP cells, 5 days
# Method: (§1) After a treatment period of 5 days in complete medium or CSS+1 nM DHT medium, the proliferative capacity of the cancer cells was measured with using CellTiter 96® AQueous One or CellTiter-Glo® Solution Cell Proliferation kit (Promega), following the manufacturer's instructions. […] Treatment with ISIS oligonucleotides in CSS+DHT medium reduced the proliferative capacity to a greater extent than treatment with MVD-3100. The proliferative capacity of cells cultured in CSS medium without DHT is 12% of untreated control levels.
# PSA mRNA [1] = experiment: PSA expression in VCaP cells; conditions: RNAiMax, 48 hrs
# Method: Cells were plated at 10,000 cells per well. […] After an incubation period of 48 hrs, RNA levels of full length AR, the V7 variant, PSA and TMPRSS2 were measured.
# After an incubation period of 48 hrs, RNA levels of full length AR, the V7 variant, PSA and TMPRSS2 were measured. The data is presented in Tables 108 expressed as percent expression of gene levels compared to the untreated control.
# Cells were plated at 15,000 cells per well and cultured in CSS media for 16 hours. […] After 4 hrs, 1 nM DHT was added. […] After an incubation period of 48 hrs, RNA levels of AR, PSA and TMPRSS2 were measured.
# 22RV1 cells [2] = experiment: 22RV1 cell proliferation (Example 32); conditions: 22RV1 cells, complete medium, 5 days
# Method: as §1, with “complete” for “complete medium or CSS+1 nM DHT”
# PSA mRNA [3] = experiment: PSA expression in C4-2 cells; conditions: 48 hrs; for Percent inhibition of PSA expression: C4-2 cells, CSS + DHT medium
# Method: Cells were plated at 1,000 cells per well. […] After an incubation period of 48 hrs, RNA levels of AR, PSA and TMPRSS2 were measured.
# Cells were plated at 2,000 cells per well and cultured in CSS media with 1 nM DHT. […] After an incubation period of 48 hrs, RNA levels of AR, PSA and TMPRSS2 were measured.
# 22RV1 cells [4] = experiment: 22RV1 cell proliferation with/without DHT (MTT); conditions: RNAiMAX, 5 days
# Method: 22RV1cells were plated at 1,500 cells per well. […] Separate sets of cells, also treated with each of the antisense oligonucleotides, were treated with DHT added on day 1 at a final concentration of 1 nM. After a treatment period of 5 days, the proliferative ability of the cancer cells was measured using the standard MTT assay. Results are presented in Table 69 as percent inhibition of proliferation, relative to non-treated cells.
# TMPRSS2 mRNA = experiment: TMPRSS2 expression in LNCaP cells (complete, CSS+DHT medium); conditions: for Percent inhibition of TMPRSS2 expression in LNCaP cells cultured in CSS + DHT medium: CSS + DHT (1 nM) medium, 48 hrs; for Percent inhibition of TMPRSS2 expression in LNCaP cells cultured in complete medium: 48 hours
# Method: Cells were plated at 1,000 cells per well. […] ISIS 549148 was included as a negative control. […] After an incubation period of 48 hours, RNA levels of AR, PSA and TMPRSS2 were measured.
# Cells were plated at 2,000 cells per well and cultured in phenol red-free RPMI supplemented with 5% charcoal stripped serum (Gibco) media for 16 hours. […] ISIS 549148 was included as a negative control. […] After an incubation period of 4 hrs, DHT was added to the medium to a final concentration of 1 nM as indicated. RNAs were collected 48 hrs later and levels of AR, PSA and TMPRSS2 were measured. In the absence of DHT, AR expression in LNCaP cells was 95%, PSA expression was 7% and TMPRSS2 expression was 24% compared to the untreated control.
sequence,measurement,setting,value
"GGCTACTACGCCGTCA (3-10-3 (S)-cEt gapmer, chemistry not fully specified) [ISIS 549148, reference compound]",Proliferation (% untreated control),"VCaP cells; CSS + DHT medium, 1.34 nM",114 % untreated control
same,Proliferation (% untreated control),"VCaP cells; CSS + DHT medium, 4.0 nM",123 % untreated control
same,Proliferation (% untreated control),"VCaP cells; CSS + DHT medium, 13.4 nM",104 % untreated control
same,Proliferation (% untreated control),"VCaP cells; CSS + DHT medium, 40 nM",92 % untreated control
same,Proliferation (% untreated control),"VCaP cells; complete medium, 1.34 nM",98 % untreated control
same,Proliferation (% untreated control),"VCaP cells; complete medium, 4.0 nM",98 % untreated control
same,Proliferation (% untreated control),"VCaP cells; complete medium, 13.4 nM",113 % untreated control
same,Proliferation (% untreated control),"VCaP cells; complete medium, 40 nM",106 % untreated control
same,Percent inhibition of PSA expression,"PSA mRNA [1]; CSS + DHT medium, 1.34 nM",0%
same,Percent inhibition of PSA expression,"PSA mRNA [1]; CSS + DHT medium, 4.0 nM",3%
same,Percent inhibition of PSA expression,"PSA mRNA [1]; CSS + DHT medium, 13.4 nM",9%
same,Percent inhibition of PSA expression,"PSA mRNA [1]; CSS + DHT medium, 40 nM",0%
same,Percent inhibition of PSA expression,"PSA mRNA [1]; complete medium, 1.34 nM",2%
same,Percent inhibition of PSA expression,"PSA mRNA [1]; complete medium, 4.0 nM",0%
same,Percent inhibition of PSA expression,"PSA mRNA [1]; complete medium, 13.4 nM",0%
same,Percent inhibition of PSA expression,"PSA mRNA [1]; complete medium, 40 nM",20%
same,Proliferation (% untreated control),22RV1 cells [2]; 1.34 nM,97 % untreated control
same,Proliferation (% untreated control),22RV1 cells [2]; 4.0 nM,97 % untreated control
same,Proliferation (% untreated control),22RV1 cells [2]; 13.4 nM,101 % untreated control
same,Proliferation (% untreated control),22RV1 cells [2]; 40 nM,83 % untreated control
same,Percent inhibition of PSA expression,PSA mRNA [3]; 0.04 μM,0%
same,Percent inhibition of PSA expression,PSA mRNA [3]; 0.2 μM,8%
same,Percent inhibition of PSA expression,PSA mRNA [3]; 1 μM,21%
same,Percent inhibition of PSA expression,PSA mRNA [3]; 5.0 μM,22%
same,Percent inhibition of PSA expression in C4-2 cells cultured in complete medium,PSA mRNA [3]; 0.04 μM,15%
same,Percent inhibition of PSA expression in C4-2 cells cultured in complete medium,PSA mRNA [3]; 0.2 μM,24%
same,Percent inhibition of PSA expression in C4-2 cells cultured in complete medium,PSA mRNA [3]; 1 μM,24%
same,Percent inhibition of PSA expression in C4-2 cells cultured in complete medium,PSA mRNA [3]; 5.0 μM,23%
same,Percent inhibition of 22RV1 cell proliferation,"22RV1 cells [4]; +DHT (1 nM), ASO 1.34 nM",0%
same,Percent inhibition of 22RV1 cell proliferation,"22RV1 cells [4]; +DHT (1 nM), ASO 4.0 nM",0%
same,Percent inhibition of 22RV1 cell proliferation,"22RV1 cells [4]; +DHT (1 nM), ASO 13.4 nM",3%
same,Percent inhibition of 22RV1 cell proliferation,"22RV1 cells [4]; +DHT (1 nM), ASO 40.0 nM",0%
same,Percent inhibition of 22RV1 cell proliferation,"22RV1 cells [4]; −DHT, ASO 1.34 nM",0%
same,Percent inhibition of 22RV1 cell proliferation,"22RV1 cells [4]; −DHT, ASO 4.0 nM",0%
same,Percent inhibition of 22RV1 cell proliferation,"22RV1 cells [4]; −DHT, ASO 13.4 nM",4%
same,Percent inhibition of 22RV1 cell proliferation,"22RV1 cells [4]; −DHT, ASO 40.0 nM",0%
same,Percent inhibition of TMPRSS2 expression in LNCaP cells cultured in CSS + DHT medium,TMPRSS2 mRNA; 0.04 μM,0%
same,Percent inhibition of TMPRSS2 expression in LNCaP cells cultured in CSS + DHT medium,TMPRSS2 mRNA; 0.2 μM,0%
same,Percent inhibition of TMPRSS2 expression in LNCaP cells cultured in CSS + DHT medium,TMPRSS2 mRNA; 1 μM,1%
same,Percent inhibition of TMPRSS2 expression in LNCaP cells cultured in CSS + DHT medium,TMPRSS2 mRNA; 5.0 μM,10%
same,Percent inhibition of TMPRSS2 expression in LNCaP cells cultured in complete medium,TMPRSS2 mRNA; 0.04 μM,0%
same,Percent inhibition of TMPRSS2 expression in LNCaP cells cultured in complete medium,TMPRSS2 mRNA; 0.2 μM,0%
same,Percent inhibition of TMPRSS2 expression in LNCaP cells cultured in complete medium,TMPRSS2 mRNA; 1 μM,0%
same,Percent inhibition of TMPRSS2 expression in LNCaP cells cultured in complete medium,TMPRSS2 mRNA; 5.0 μM,0%
